Assay results: the NIST ThermoML archive (doi:10.1021/je700260f)

Settings: 303.15 K, Liquid, Vibrating tube method

FC(C(F)(F)F)C(F)(F)F [1,1,1,2,3,3,3-heptafluoropropane]
Settings | mass density [kg/m3]
8067 kPa | 1421.1
8093 kPa | 1421.3
8123 kPa | 1421.4
8152 kPa | 1421.5
8181 kPa | 1421.9
8211 kPa | 1422
8250 kPa | 1422.2
8280 kPa | 1422.3
8306 kPa | 1422.5
8340 kPa | 1422.8
8378 kPa | 1423
8411 kPa | 1423.1
8436 kPa | 1423.4
8471 kPa | 1423.6
8496 kPa | 1423.6
8526 kPa | 1423.9
8556 kPa | 1423.9
8581 kPa | 1424.3
8610 kPa | 1424.4
8640 kPa | 1424.4
8671 kPa | 1424.6
8697 kPa | 1424.8
8726 kPa | 1425
8752 kPa | 1425.2
8778 kPa | 1425.4
8808 kPa | 1425.5
8847 kPa | 1425.8
8873 kPa | 1425.9
8908 kPa | 1426.2
8947 kPa | 1426.2
8978 kPa | 1426.5
9004 kPa | 1426.6
9031 kPa | 1426.8
9066 kPa | 1426.9
9263 kPa | 1428.1
9299 kPa | 1428.3
9334 kPa | 1428.5
9370 kPa | 1428.6
9401 kPa | 1428.9
9445 kPa | 1429.1
9480 kPa | 1429.3
9502 kPa | 1429.4
9533 kPa | 1429.7
9567 kPa | 1429.9
9598 kPa | 1429.9
9634 kPa | 1430.2
9661 kPa | 1430.3
9693 kPa | 1430.5
9720 kPa | 1430.6
9747 kPa | 1430.8
9779 kPa | 1431.1
9806 kPa | 1431.2
9833 kPa | 1431.3
9878 kPa | 1431.5
9906 kPa | 1431.7
9938 kPa | 1431.8
9969 kPa | 1432.1
9996 kPa | 1432.3
10037 kPa | 1432.6
10069 kPa | 1432.6
10110 kPa | 1432.8
10137 kPa | 1433
10174 kPa | 1433.2
10201 kPa | 1433.4
10228 kPa | 1433.5
10255 kPa | 1433.7
10278 kPa | 1433.7
10311 kPa | 1434
10343 kPa | 1434
10379 kPa | 1434.3
10406 kPa | 1434.4
10434 kPa | 1434.6
10466 kPa | 1434.8
10494 kPa | 1434.9
10531 kPa | 1435.1
10559 kPa | 1435.3
10596 kPa | 1435.4
10629 kPa | 1435.8
10662 kPa | 1436
10695 kPa | 1436
10725 kPa | 1436.2
10753 kPa | 1436.4
10791 kPa | 1436.6
10824 kPa | 1436.9
10960 kPa | 1437.4
11032 kPa | 1437.7
11066 kPa | 1438
11105 kPa | 1438.2
11143 kPa | 1438.4
11183 kPa | 1438.6
11218 kPa | 1438.8
11258 kPa | 1439.1
11297 kPa | 1439.2
11332 kPa | 1439.3
11372 kPa | 1439.7
11402 kPa | 1439.8
11442 kPa | 1439.8
11473 kPa | 1440.1
11525 kPa | 1440.4
11555 kPa | 1440.6
11599 kPa | 1440.8
11633 kPa | 1441
11668 kPa | 1441.2
11703 kPa | 1441.2
11734 kPa | 1441.6
11770 kPa | 1441.7
11800 kPa | 1442
11840 kPa | 1442.2
11875 kPa | 1442.2
11915 kPa | 1442.5
11952 kPa | 1442.7
11987 kPa | 1442.8
12022 kPa | 1443
12052 kPa | 1443.3
12404 kPa | 1444.9
12445 kPa | 1445.1
12481 kPa | 1445.4
12527 kPa | 1445.6
12558 kPa | 1445.7
12595 kPa | 1446
12631 kPa | 1446.1
12681 kPa | 1446.4
12722 kPa | 1446.5
12752 kPa | 1446.7
12793 kPa | 1447
12830 kPa | 1447.2
12877 kPa | 1447.5
12924 kPa | 1447.5
12965 kPa | 1447.8
12995 kPa | 1447.8
13030 kPa | 1448.2
13077 kPa | 1448.3
13108 kPa | 1448.5
13150 kPa | 1448.8
13186 kPa | 1448.9
13229 kPa | 1449.2
13275 kPa | 1449.4
13317 kPa | 1449.6
13364 kPa | 1449.7
13400 kPa | 1449.9
13432 kPa | 1450.1
13468 kPa | 1450.3
13516 kPa | 1450.6
13547 kPa | 1450.6
13593 kPa | 1450.8
13620 kPa | 1451.1
13652 kPa | 1451.1
13689 kPa | 1451.3
13730 kPa | 1451.6
13762 kPa | 1451.7
13794 kPa | 1451.9
13826 kPa | 1452
13867 kPa | 1452.1
13900 kPa | 1452.4
13937 kPa | 1452.6
13966 kPa | 1452.7
14003 kPa | 1452.9
14032 kPa | 1453.1
14069 kPa | 1453.3
14113 kPa | 1453.4
14146 kPa | 1453.5
14189 kPa | 1453.8
14223 kPa | 1454.1
14261 kPa | 1454.1
14289 kPa | 1454.2
14322 kPa | 1454.4
14355 kPa | 1454.7
14388 kPa | 1454.9
14416 kPa | 1455
14450 kPa | 1455
14493 kPa | 1455
14521 kPa | 1455.4
14555 kPa | 1455.5
14875 kPa | 1457.1
14909 kPa | 1457.2
14938 kPa | 1457.4
14981 kPa | 1457.7
15024 kPa | 1457.9
15062 kPa | 1457.8
15091 kPa | 1458
15121 kPa | 1458.3
15159 kPa | 1458.3
15193 kPa | 1458.5
15222 kPa | 1458.7
15252 kPa | 1458.8
15283 kPa | 1459
15317 kPa | 1459.2
15351 kPa | 1459.2
15389 kPa | 1459.5
15422 kPa | 1459.6
15461 kPa | 1459.8
15500 kPa | 1459.9
15540 kPa | 1460.2
15578 kPa | 1460.3
15623 kPa | 1460.4
15662 kPa | 1460.6
15692 kPa | 1460.8
15721 kPa | 1461.1
15751 kPa | 1461.1
15780 kPa | 1461.1
15805 kPa | 1461.3
15840 kPa | 1461.4
15879 kPa | 1461.7
15914 kPa | 1461.8
15948 kPa | 1462
